Measurements taken from ChEMBL document CHEMBL1201862, “PubChem BioAssay data set” (2004).
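Each compound was tested at five concentrations against cells in 96-well plates for 48 hours. GI50: concentration for 50% inhibition of growth.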 The source made the active and inactive calls. Cut-off read from the data, not from the text of the source: active = GI50 up to about 1.1 µM and inactive = higher.

What was measured:
Experiment in all cases: inhibition of tumour cell growth, NCI panel, 48 h
CAKI-1 = system: CAKI-1
HCT-15 = system: HCT-15
M14 = system: M14
KM-20L2 = system: KM-20L2
LOX IMVI = system: LOX IMVI
DMS-273 = system: DMS-273
A498 = system: A498
KM12 = system: KM12
HCC 2998 = system: HCC 2998
RPMI-8226 = system: RPMI-8226
SNB-75 = system: SNB-75
HCT-116 = system: HCT-116
786-0 = system: 786-0
HL-60 = system: HL-60
SF-295 = system: SF-295
SK-MEL-2 = system: SK-MEL-2
OVCAR-4 = system: OVCAR-4
IGROV-1 = system: IGROV-1
HOP-92 = system: HOP-92
COLO 205 = system: COLO 205
TK-10 = system: TK-10
LXFL 529 = system: LXFL 529
M19-MEL = system: M19-MEL
Malme-3M = system: Malme-3M
SF-268 = system: SF-268
OVCAR-3 = system: OVCAR-3
OVCAR-8 = system: OVCAR-8
SK-MEL-28 = system: SK-MEL-28
OVCAR-5 = system: OVCAR-5
UO-31 = system: UO-31
SF-539 = system: SF-539
UACC-257 = system: UACC-257
NCI-H23 = system: NCI-H23
SW-620 = system: SW-620
SN12C = system: SN12C
RXF 631 = system: RXF 631
MOLT-4 = system: MOLT-4
NCI-H460 = system: NCI-H460
NCI-H522 = system: NCI-H522
U-251 = system: U-251
SNB-78 = system: SNB-78
ACHN = system: ACHN
HT-29 = system: HT-29
RXF 393 = system: RXF 393
XF498 = system: XF498
SR = system: SR
CCRF-CEM = system: CCRF-CEM
NCI-H226 = system: NCI-H226
SNB-19 = system: SNB-19
HOP-62 = system: HOP-62
HOP-18 = system: HOP-18
DMS-114 = system: DMS-114
EKVX = system: EKVX
DLD-1 = system: DLD-1
SK-OV-3 = system: SK-OV-3
A549 = system: A549
K562 = system: K562
UACC-62 = system: UACC-62
SK-MEL-5 = system: SK-MEL-5

O=C(CC1=Nc2nnc(CCCCCCCc3nnc4n3C(=O)C(CC(=O)c3ccc5ccccc5c3)=N4)n2C1=O)c1ccc2ccccc2c1
GI50 (CAKI-1): > 100 µM (inactive)
GI50 (HCT-15): > 100 µM
GI50 (M14): > 100 µM (inactive)
GI50 (KM-20L2): > 100 µM (inactive)
GI50 (LOX IMVI): > 100 µM (inactive)
GI50 (DMS-273): > 100 µM (inactive)
GI50 (A498): < 0.01 µM (active)
GI50 (KM12): > 100 µM (inactive)
GI50 (HCC 2998): > 100 µM (inactive)
GI50 (RPMI-8226): > 100 µM (inactive)
GI50 (SNB-75): > 100 µM (inactive)
GI50 (HCT-116): > 100 µM (inactive)
GI50 (786-0): > 100 µM (inactive)
GI50 (HL-60): > 100 µM (inactive)
GI50 (SF-295): > 100 µM (inactive)
GI50 (SK-MEL-2): > 100 µM (inactive)
GI50 (OVCAR-4): > 100 µM (inactive)
GI50 (IGROV-1): 66.2 µM (inactive)
GI50 (HOP-92): > 100 µM (inactive)
GI50 (COLO 205): > 100 µM (inactive)
GI50 (TK-10): > 100 µM (inactive)
GI50 (LXFL 529): > 100 µM (inactive)
GI50 (M19-MEL): > 100 µM (inactive)
GI50 (Malme-3M): > 100 µM (inactive)
GI50 (SF-268): > 100 µM (inactive)
GI50 (OVCAR-3): > 100 µM (inactive)
GI50 (OVCAR-8): > 100 µM (inactive)
GI50 (SK-MEL-28): > 100 µM (inactive)
GI50 (OVCAR-5): > 100 µM (inactive)
GI50 (UO-31): > 100 µM (inactive)
GI50 (SF-539): > 100 µM (inactive)
GI50 (UACC-257): > 100 µM (inactive)
GI50 (NCI-H23): > 100 µM (inactive)
GI50 (SW-620): > 100 µM (inactive)
GI50 (SN12C): > 100 µM (inactive)
GI50 (RXF 631): 51.9 µM (inactive)
GI50 (MOLT-4): > 100 µM (inactive)
GI50 (NCI-H460): > 100 µM (inactive)
GI50 (NCI-H522): > 100 µM (inactive)
GI50 (U-251): > 100 µM (inactive)
GI50 (SNB-78): > 100 µM (inactive)
GI50 (ACHN): > 100 µM (inactive)
GI50 (HT-29): > 100 µM (inactive)
GI50 (RXF 393): > 100 µM (inactive)
GI50 (XF498): > 100 µM (inactive)
GI50 (SR): > 100 µM (inactive)
GI50 (CCRF-CEM): > 100 µM (inactive)
GI50 (NCI-H226): > 100 µM (inactive)
GI50 (SNB-19): > 100 µM (inactive)
GI50 (HOP-62): > 100 µM (inactive)
GI50 (HOP-18): > 100 µM (inactive)
GI50 (DMS-114): > 100 µM (inactive)
GI50 (EKVX): 63.5 µM (inactive)
GI50 (DLD-1): > 100 µM (inactive)
GI50 (SK-OV-3): > 100 µM (inactive)
GI50 (A549): > 100 µM (inactive)
GI50 (K562): > 100 µM (inactive)
GI50 (UACC-62): > 100 µM (inactive)

Brc1nc2c3ccccc3ncn2c1Br
GI50 (CAKI-1): 28.3 µM (inactive)
GI50 (HCT-15): 35.3 µM
GI50 (M14): 38.5 µM (inactive)
GI50 (KM-20L2): 28.4 µM (inactive)
GI50 (LOX IMVI): 19 µM (inactive)
GI50 (DMS-273): 30.8 µM (inactive)
GI50 (A498): 43.5 µM (inactive)
GI50 (KM12): 32.1 µM (inactive)
GI50 (HCC 2998): 46.9 µM (inactive)
GI50 (RPMI-8226): 23.4 µM (inactive)
GI50 (SNB-75): 20.1 µM (inactive)
GI50 (HCT-116): 37.3 µM (inactive)
GI50 (786-0): 37.2 µM (inactive)
GI50 (HL-60): 22.5 µM (inactive)
GI50 (SF-295): 34.4 µM (inactive)
GI50 (SK-MEL-2): 27.5 µM (inactive)
GI50 (OVCAR-4): 16 µM (inactive)
GI50 (IGROV-1): 35.9 µM (inactive)
GI50 (HOP-92): 27.9 µM (inactive)
GI50 (COLO 205): 16.3 µM (inactive)
GI50 (TK-10): 56.4 µM (inactive)
GI50 (LXFL 529): 29.9 µM (inactive)
GI50 (M19-MEL): 33.5 µM (inactive)
GI50 (Malme-3M): 13.3 µM (inactive)
GI50 (SF-268): 82.6 µM (inactive)
GI50 (OVCAR-3): 0.316 µM (active)
GI50 (OVCAR-8): 42.7 µM (inactive)
GI50 (SK-MEL-28): 82 µM (inactive)
GI50 (OVCAR-5): 64.9 µM (inactive)
GI50 (UO-31): 36.7 µM (inactive)
GI50 (SF-539): 49.9 µM (inactive)
GI50 (UACC-257): 33 µM (inactive)
GI50 (NCI-H23): 20.7 µM (inactive)
GI50 (SW-620): 36.6 µM (inactive)
GI50 (SN12C): 30.1 µM (inactive)
GI50 (RXF 631): 39.4 µM (inactive)
GI50 (MOLT-4): 25.3 µM (inactive)
GI50 (NCI-H460): 34.2 µM (inactive)
GI50 (NCI-H522): 18.7 µM (inactive)
GI50 (U-251): 28.8 µM (inactive)
GI50 (SNB-78): 36.7 µM (inactive)
GI50 (ACHN): 19.6 µM (inactive)
GI50 (HT-29): 29.3 µM (inactive)
GI50 (RXF 393): 35.6 µM (inactive)
GI50 (XF498): 25.8 µM (inactive)
GI50 (SR): 19.4 µM (inactive)
GI50 (CCRF-CEM): 25.5 µM (inactive)
GI50 (NCI-H226): 26.4 µM (inactive)
GI50 (SNB-19): 36.9 µM (inactive)
GI50 (HOP-62): 44.6 µM (inactive)
GI50 (HOP-18): 14.4 µM (inactive)
GI50 (DMS-114): 33.4 µM (inactive)
GI50 (EKVX): 21.1 µM (inactive)
GI50 (DLD-1): 43.6 µM (inactive)
GI50 (SK-OV-3): 38.5 µM (inactive)
GI50 (SK-MEL-5): 18.3 µM (inactive)
GI50 (A549): 38.8 µM (inactive)
GI50 (K562): 31.3 µM (inactive)
GI50 (UACC-62): 16.4 µM (inactive)
